# Laboratory results: patent US11690845B2, “Methods of administering elagolix” (priority 2020, dated 2023)
# Read-outs that look alike come from different tables or passages of the source.
# Key:
# P-gp = P-gp (Homo sapiens, UniProt P08183); assay: Substrate of P-gp; format: in vitro ADME
# pregnant rats = assay: Embryofetal development study in the rat; format: in vivo
# Description: (§2) Embryofetal development studies were conducted in the rat and rabbit. Elagolix was administered by oral gavage to pregnant rats (25 animals/dose) at doses of 0, 300, 600 and 1200 mg/kg/day and to rabbits (20 animals/dose) at doses of 0, 100, 150, and 200 mg/kg/day, during the period of organogenesis (gestation day 6-17 in the rat and gestation day 7-20 in the rabbit).
# rabbits = assay: Embryofetal development study in the rabbit; format: in vivo
# Description: as §2
# [1] = Pre- and postnatal development study in rats; format: in vivo, rat; details: female, rat, plasma, oral, rats, read-out: maternal plasma concentration
# Description: (§1) In a pre- and postnatal development study in rats, elagolix was given in the diet to achieve doses of 0, 100 and 300 mg/kg/day (25 per dose group) from gestation day 6 to lactation day 20. […] Pup survival was decreased from birth to postnatal day 4. […] Smaller body size and effect on startle response were associated with lower pup weights at 300 mg/kg/day. Post-weaning growth, development and behavioral endpoints were unaffected.
# rats = assay: Pre- and postnatal development study in rats; format: in vivo, rat; details: for maternal plasma concentration relative to maximal elagolix concentration (Cmax) in humans at the MRHD: rats
# Description: as §1
# CYP3A = assay: Substrate of / metabolism by CYP3A; format: in vitro ADME
# P-glycoprotein (P-gp) = P-glycoprotein (P-gp) (Homo sapiens, UniProt P08183); assay: Inhibition of efflux transporter P-gp; format: in vitro ADME
# [2] = Pharmacogenomics: elagolix plasma concentrations by SLCO1B1 521T>C genotype; format: in vivo, human; details: SLCO1B1 521 C/C genotype
# Text: Hepatic uptake of elagolix involves the OATP1B1 transporter protein. Higher plasma concentrations of elagolix have been observed in patients who have two reduced function alleles of the gene that encodes OATP1B1 (SLCO1B1 521T>C) (these patients are likely to have reduced hepatic uptake of elagolix; and thus, higher plasma elagolix concentrations). The frequency of this SLCO1B1 521 C/C genotype is generally less than […] in most racial/ethnic groups. Women with this genotype are expected to have approximately 2-fold higher elagolix mean concentrations compared to women with normal transporter function (i.e., SLCO1B1 521T/T genotype). Adverse effects of elagolix have not been fully evaluated in subjects who have two reduced function alleles of the gene that encodes OATP1B1 (SLCO1B1 521T>C). The above listed examples should not be deemed to limit the scope of the invention as claimed.
# CYP3A4 = assay: In vitro studies: CYP3A4 (CYP3A) induction; format: in vitro ADME; details: in vitro studies (CYP3A4; b159: CYP3A)
# [3] = Drug interaction studies: pharmacokinetics of elagolix in the presence of co-administered drugs; format: in vivo, human; details: for Ratio (90% CI) AUC of elagolix, co-administration vs elagolix alone / Ratio (90% CI) Cmax of elagolix, co-administration vs elagolix alone: elagolix 150 mg single dose
# Description: Drug interaction studies were performed with elagolix and other drugs likely to be co-administered and with drugs commonly used as probes for pharmacokinetic interactions.
# CYP2B6 = assay: In vitro studies: CYP2B6 induction; format: in vitro ADME
# OATP1B1 = molecular target: T1, OATP1B1 (Homo sapiens, UniProt Q9Y6L6); assay: Substrate of OATP1B1; format: in vitro ADME
# T1 sequence (Q9Y6L6 1-691): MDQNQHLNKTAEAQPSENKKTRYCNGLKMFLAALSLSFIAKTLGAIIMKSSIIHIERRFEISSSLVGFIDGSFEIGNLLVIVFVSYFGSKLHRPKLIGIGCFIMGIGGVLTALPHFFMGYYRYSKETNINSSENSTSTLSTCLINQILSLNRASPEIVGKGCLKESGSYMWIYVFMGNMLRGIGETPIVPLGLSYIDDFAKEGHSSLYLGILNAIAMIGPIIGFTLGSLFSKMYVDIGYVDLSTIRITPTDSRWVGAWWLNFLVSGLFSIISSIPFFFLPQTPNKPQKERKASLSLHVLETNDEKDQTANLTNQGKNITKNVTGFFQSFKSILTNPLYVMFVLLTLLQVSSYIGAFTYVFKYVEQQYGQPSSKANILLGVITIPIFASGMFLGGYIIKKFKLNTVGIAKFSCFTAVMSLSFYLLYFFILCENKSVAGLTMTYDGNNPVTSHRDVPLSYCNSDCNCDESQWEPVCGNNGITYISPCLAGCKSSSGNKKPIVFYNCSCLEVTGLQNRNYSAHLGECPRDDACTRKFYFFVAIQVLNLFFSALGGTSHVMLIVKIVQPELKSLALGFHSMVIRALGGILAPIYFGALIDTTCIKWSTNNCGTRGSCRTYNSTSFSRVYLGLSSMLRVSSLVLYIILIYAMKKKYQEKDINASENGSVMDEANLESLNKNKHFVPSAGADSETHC
# CYP2C19 = CYP2C19 (Homo sapiens, UniProt P33261); assay: In vitro studies: CYP2C19 inhibition; format: in vitro ADME
# [4] = molecular target: T2, rat gonadotropin-releasing hormone (GnRH) receptor (Rattus norvegicus, UniProt P30969); assay: Binding to rat versus human GnRH receptor; details: rat vs human GnRH receptor
# T2 sequence (P30969 1-327): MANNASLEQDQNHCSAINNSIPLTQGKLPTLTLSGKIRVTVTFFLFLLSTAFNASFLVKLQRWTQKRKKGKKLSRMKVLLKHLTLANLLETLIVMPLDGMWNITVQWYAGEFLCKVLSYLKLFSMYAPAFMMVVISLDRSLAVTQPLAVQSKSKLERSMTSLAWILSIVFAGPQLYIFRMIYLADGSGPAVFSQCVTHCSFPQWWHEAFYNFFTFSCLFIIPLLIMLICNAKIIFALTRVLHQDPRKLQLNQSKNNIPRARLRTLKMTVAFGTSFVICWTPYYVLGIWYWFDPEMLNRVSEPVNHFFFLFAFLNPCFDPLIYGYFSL
# [5] = rabbits, highest, maternally toxic dose
# [6] = lactation day 21, 100 mg/kg/day
# [7] = lactation day 21, 300 mg/kg/day
# [8] = Ketoconazole 400 mg once daily, N 11
# [9] = Rifampin 600 mg single dose, N 12
# Chain of P-glycoprotein (P-gp) (P08183 whole entry): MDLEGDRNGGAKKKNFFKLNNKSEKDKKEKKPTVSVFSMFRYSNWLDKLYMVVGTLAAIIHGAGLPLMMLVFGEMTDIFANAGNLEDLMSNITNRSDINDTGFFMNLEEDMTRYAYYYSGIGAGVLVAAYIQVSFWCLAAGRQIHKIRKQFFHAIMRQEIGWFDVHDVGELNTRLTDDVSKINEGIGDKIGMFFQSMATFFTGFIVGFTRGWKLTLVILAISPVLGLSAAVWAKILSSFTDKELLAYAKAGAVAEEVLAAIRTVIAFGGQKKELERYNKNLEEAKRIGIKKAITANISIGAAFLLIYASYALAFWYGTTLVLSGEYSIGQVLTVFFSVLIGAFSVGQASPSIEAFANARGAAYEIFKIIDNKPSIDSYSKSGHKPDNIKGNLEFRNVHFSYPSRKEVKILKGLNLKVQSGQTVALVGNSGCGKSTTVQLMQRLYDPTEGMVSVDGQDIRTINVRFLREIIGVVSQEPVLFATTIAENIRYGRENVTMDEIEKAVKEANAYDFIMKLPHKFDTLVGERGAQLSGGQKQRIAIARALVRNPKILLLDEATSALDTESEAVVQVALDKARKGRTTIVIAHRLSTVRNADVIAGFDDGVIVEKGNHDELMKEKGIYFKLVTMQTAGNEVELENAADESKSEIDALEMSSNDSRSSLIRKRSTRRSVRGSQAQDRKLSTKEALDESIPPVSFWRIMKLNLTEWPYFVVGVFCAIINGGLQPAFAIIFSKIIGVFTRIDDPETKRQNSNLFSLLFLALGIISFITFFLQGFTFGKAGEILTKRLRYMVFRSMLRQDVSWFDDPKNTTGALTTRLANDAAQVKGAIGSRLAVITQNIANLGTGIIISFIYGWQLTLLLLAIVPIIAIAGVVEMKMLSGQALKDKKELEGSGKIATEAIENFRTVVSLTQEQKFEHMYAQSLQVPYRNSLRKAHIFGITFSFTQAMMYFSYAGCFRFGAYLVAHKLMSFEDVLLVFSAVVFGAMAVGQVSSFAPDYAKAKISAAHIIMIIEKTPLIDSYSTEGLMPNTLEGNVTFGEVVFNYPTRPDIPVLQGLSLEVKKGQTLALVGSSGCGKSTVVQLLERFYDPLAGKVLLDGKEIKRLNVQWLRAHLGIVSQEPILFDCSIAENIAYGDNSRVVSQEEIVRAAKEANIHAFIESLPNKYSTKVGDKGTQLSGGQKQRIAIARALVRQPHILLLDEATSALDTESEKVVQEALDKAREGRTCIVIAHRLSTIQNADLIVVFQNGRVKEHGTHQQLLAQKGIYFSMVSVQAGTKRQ
# Chain of P-gp (P08183 whole entry): as above
# Chain of CYP2C19 (P33261 whole entry): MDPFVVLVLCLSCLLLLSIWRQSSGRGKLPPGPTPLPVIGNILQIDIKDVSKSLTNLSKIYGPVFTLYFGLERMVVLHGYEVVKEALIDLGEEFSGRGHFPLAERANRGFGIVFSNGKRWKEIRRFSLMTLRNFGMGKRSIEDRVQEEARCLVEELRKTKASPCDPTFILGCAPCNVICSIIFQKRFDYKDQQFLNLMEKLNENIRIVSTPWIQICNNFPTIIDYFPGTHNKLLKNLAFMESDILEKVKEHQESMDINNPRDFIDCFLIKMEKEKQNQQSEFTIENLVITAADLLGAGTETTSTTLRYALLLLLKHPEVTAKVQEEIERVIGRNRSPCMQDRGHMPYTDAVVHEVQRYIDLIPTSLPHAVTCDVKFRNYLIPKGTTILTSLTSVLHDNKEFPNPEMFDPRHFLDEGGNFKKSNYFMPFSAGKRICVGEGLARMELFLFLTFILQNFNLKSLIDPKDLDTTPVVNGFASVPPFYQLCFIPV
smiles,measurement,setting,value
"COc1cccc(-c2c(C)n(Cc3c(F)cccc3C(F)(F)F)c(=O)n(C[C@H](NCCCC(=O)O)c3ccccc3)c2=O)c1F [elagolix, 4-((R)-2-[5-(2-fluoro-3-methoxy-phenyl)-3-(2-fluoro-6-trifluoromethyl-benzyl)-4-methyl-2,6-dioxo-3,6-dihydro-2H-pyrimidin-1-yl]-1-phenyl-ethylamino)-butyric acid]",substrate of P-gp,P-gp,substrate
same,"dose with (increased) postimplantation loss, multiple of MRHD","pregnant rats; pregnant rats, oral, organogenesis, mid dose group, based on AUC",12 times the MRHD
same,fetal malformations,"pregnant rats; rat, any dose level tested",No fetal malformations
same,maternal deaths,"pregnant rats; rats, 300, 600 and 1200 mg/kg/day",six deaths
same,fetal malformations,"rabbits; rabbit, any dose level tested",No fetal malformations
same,"dose with spontaneous abortion and total litter loss, multiple of MRHD","rabbits; rabbits, oral, organogenesis, highest, maternally toxic dose, based on AUC",7 times the MRHD
same,total litter loss,"rabbits; rabbits, 150 mg/kg/day, non-maternally toxic",single total litter loss
same,spontaneous abortions,rabbits; [5],three spontaneous abortions
same,total litter loss,rabbits; [5],single total litter loss
same,"dose with total litter loss, multiple of MRHD","rabbits; rabbits, lower non-maternally toxic dose of 150 mg/kg/day",4 times the MRHD
same,concentration at 21 lactation day,[1]; [6],47 ng/mL
same,concentration at 21 lactation day,[1]; [7],125 ng/mL
same,pup birth weights,rats; 300 mg/kg/day,lower birth weights
same,dams failing to deliver,rats; highest dose (300 mg/kg/day),one failed to deliver
same,dams with total litter loss,rats; highest dose (300 mg/kg/day),two dams
same,pup survival,"rats; highest dose, birth to postnatal day 4",decreased
same,"post-weaning growth, development and behavioral endpoints","rats; rat, in vivo",unaffected
same,maternal plasma concentration relative to maximal elagolix concentration (Cmax) in humans at the MRHD,rats; [6],0.04 fold
same,maternal plasma concentration relative to maximal elagolix concentration (Cmax) in humans at the MRHD,rats; [7],0.1 fold
same,substrate of CYP3A,CYP3A,substrate
same,P-gp inhibition,P-glycoprotein (P-gp),inhibitor
same,plasma concentrations in patients with two reduced function alleles of SLCO1B1 521T>C,[2],Higher
same,elagolix mean concentrations vs women with normal transporter function (SLCO1B1 521T/T),[2]; expected,approximately 2 fold higher
same,CYP3A4 / CYP3A induction,CYP3A4,weak to moderate inducer
same,"Ratio (90% CI) AUC of elagolix, co-administration vs elagolix alone",[3]; [8],2.20
same,"Ratio (90% CI) Cmax of elagolix, co-administration vs elagolix alone",[3]; [8],1.77
same,"Ratio (90% CI) AUC of elagolix, co-administration vs elagolix alone",[3]; Rifampin 600 mg once daily,1.65
same,"Ratio (90% CI) Cmax of elagolix, co-administration vs elagolix alone",[3]; Rifampin 600 mg once daily,2.00
same,"Ratio (90% CI) AUC of elagolix, co-administration vs elagolix alone",[3]; [9],5.58
same,"Ratio (90% CI) Cmax of elagolix, co-administration vs elagolix alone",[3]; [9],4.37
same,plasma concentrations of elagolix with concomitant rifampin,[3]; concomitant use of rifampin,increased
same,changes in elagolix exposures,"[3]; elagolix 300 mg twice daily with rosuvastatin (20 mg once daily), sertraline (25 mg once daily) or fluconazole (200 mg single dose)",No clinically significant changes
same,CYP2B6 induction,CYP2B6,weak to moderate inducer
same,substrate of OATP1B1,OATP1B1,substrate
same,CYP2C19 inhibition,CYP2C19,weak inhibitor
same,binding to rat GnRH receptor relative to human GnRH receptor,[4],~1000 fold less
